Results published in patent US7771978B2, “β1,4mannosyltransferases” (priority 2003, dated 2010).

Biological target: T1, Egghead β1-4-mannosyltransferase (Drosophila melanogaster, UniProt O01346)
T1 construct: a secreted version of egghead was prepared as described for the full length construct; made in house; host or cells: baculovirus-infected Sf9 and High Five insect cells (microsomal fractions)
T1 sequence (O01346 1-457): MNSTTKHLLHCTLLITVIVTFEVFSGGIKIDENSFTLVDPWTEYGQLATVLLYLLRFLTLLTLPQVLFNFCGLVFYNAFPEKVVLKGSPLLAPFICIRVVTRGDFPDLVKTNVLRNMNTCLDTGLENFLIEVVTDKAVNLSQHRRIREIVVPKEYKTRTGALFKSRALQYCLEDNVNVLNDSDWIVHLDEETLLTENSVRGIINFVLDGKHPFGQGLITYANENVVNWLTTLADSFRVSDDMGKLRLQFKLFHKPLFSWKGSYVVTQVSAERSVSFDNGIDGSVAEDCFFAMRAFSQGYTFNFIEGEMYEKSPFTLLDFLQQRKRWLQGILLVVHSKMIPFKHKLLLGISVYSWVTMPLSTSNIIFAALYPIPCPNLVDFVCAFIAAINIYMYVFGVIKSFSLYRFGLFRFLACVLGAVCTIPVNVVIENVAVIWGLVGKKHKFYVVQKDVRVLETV
Experiment: Egghead transfer of Man to glycosphingolipid acceptors (thin-layer chromatography/autoradiography)
Assay type: biochemical
Conditions: GDP-Man donor; microsomal fraction; 4 h
Protocol: Microsomal fraction of egghead (Egh) and GalNAc-T4 (GT4) were incubated with Glcβ1-1Cer, LacCer, or no glycolipid and GDP-Man as described in Experimental Procedures. Autoradiography of thin-layer chromatography of reaction products (4 h). Plate was run in chloroform-methanol-water (60/38/10, v/v/v). Migration of standard glycolipids is indicated with arrows.
Glycosphingolipids of the fruit fly are based on the arthroseries GlcNAcβ1-3Manβ1-4Glcβ1-1 Cer core. […] Evidence in support hereof was provided by showing that brainiac utilizes the product formed by egghead (FIG. 5). This assay was carried out with n-octyl-β-Glc as initial acceptor substrate because it served as a better substrate than GlcCer under the assay conditions used.
An expression construct of the full coding region of egghead was prepared by RT-PCR using D. melanogaster mRNA and the sense primer Egh001 (5′-[…]-3′, SEQ ID NO: 4) with a BglII restriction site and the anti-sense primer Egh002 (5′-[…]-3′, SEQ ID NO: 5) with a XbaI restriction site. The resulting 1.1 Kb fragment was cloned into the BglII/XbaI sites of pVL1393 (PharMingen) and pVL1393-MYC. Furthermore an expression construct for a secreted version of egghead was prepared as described for the full length construct but using sense primer Egh003 (5′[…]-3′, SEQ ID NO: 6) with a BglII restriction site and the anti-sense primer Egh002. The resulting 1 Kb fragment was cloned into pAcGP67 Baculo-virus expression vector. Expression constructs pVL-egghead-full and pVL-egghead-Myc-full and pAcGP67-egghead-sol were co-transfected with Baculo-Gold™ DNA (Pharmingen) in Sf9 cells as described (12). […] Pellets were used at 10 mg/ml (Protein concentration determined by BCA, Pierce). Reaction products of soluble acceptors were quantified by chromatography on Dowex AG1-X8 (Sigma). Assays with glycosphingolipids included 5 mM 2-Acetamido-2-deoxy-D-Glucono-1,5-lactone (inhibitor of hexosaminidase activity), and products were purified on octadecyl-silica cartridges (Supelco) and analyzed by high performance thin-layer chromatography followed by autoradiography.

Substance	glycosphingolipid as acceptor substrate of egghead (in words)
Galβ1-4Glcβ1-Cer [LacCer]	does not serve as substrate
Glcβ1-1Cer	utilizes
Galβ1-1Cer	not to serve as a substrate
